Results taken from patent US6982270B1, “3,4-dihydro-(1H)quinazolin-2-one compounds as CSBP/p38 kinase inhibitors” (SmithKline Beecham Corporation, priority 1999, dated 2006).

Target: T1, CSBP/p38 (Homo sapiens, UniProt Q16539)
T1 construct: made in house; host or cells: yeast
Test: CSBP/p38 Kinase Assay
Type: biochemical
Settings: 32P transfer from ATP to EGFR-derived peptide T669; yeast-expressed, activated p38; 0.17 mM ATP; "this binding assay or a similar assay"; read-out: IC50 (positive inhibitory activity)
Protocol: This assay measures the CSBP/p38-catalyzed transfer of ^32p from [a−^32P]ATP to threonine residue in an epidermal growth factor receptor (EGFR)-derived peptide (T669) with the following sequence: […] (residues 661-681). (See Gallagher et al., “Regulation of Stress Induced Cytokine Production by Pyridinyl Imidazoles: Inhibition of CSBP Kinase”, BioOrganic & Medicinal Chemistry, 1997, 5, 49-64).
Reactions were carried in round bottom 96 well plate (from Coming) in a […] volume. Reactions contained (in final concentration): 25 mM Hepes, pH 7.5; 8 mM MgCl2; 0.17 mM ATP (the Km[ATP] of p38 (see Lee et al., Nature 300, n72 pg. 639-746 (December 1994)); 2.5 uCi of [g-32P]ATP; 0.2 mM sodium orthovanadate; 1 mM DTT; 0.1% BSA; 10% glycerol; 0.67 mM T669 peptide; and 24 nM of yeast-expressed, activated and purified p38. Reactions were initiated by the addition of [gamma-32P]Mg/ATP, and incubated for 25 min. at 37° C. Inhibitors (dissolved in DMSO) were incubated with the reaction mixture on ice for 30 minutes prior to adding the 32P-ATP. Final DMSO concentration was 0.16%. Reactions were terminated by adding 10 ul of 0.3 M phosphoric acid, and phosphorylated peptide was isolated from the reactions by capturing it on p81 phosphocellulose filters. Filters were washed with 75 mM phosphoric acids, and incorporated 32P was quantified using beta scintillation counter. […]

T1 sequence (Q16539 whole entry): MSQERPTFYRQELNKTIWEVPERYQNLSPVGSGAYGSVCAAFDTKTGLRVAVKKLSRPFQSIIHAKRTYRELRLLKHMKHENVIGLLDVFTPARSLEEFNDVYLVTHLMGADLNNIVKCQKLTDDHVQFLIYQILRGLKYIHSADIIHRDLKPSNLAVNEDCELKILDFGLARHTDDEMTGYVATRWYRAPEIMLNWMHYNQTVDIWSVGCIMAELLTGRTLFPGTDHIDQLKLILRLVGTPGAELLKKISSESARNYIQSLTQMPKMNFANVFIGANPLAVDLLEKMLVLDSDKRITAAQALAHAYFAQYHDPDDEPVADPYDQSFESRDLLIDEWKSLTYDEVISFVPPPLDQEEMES

Structure (SMILES): O=C1NCc2cc(Nc3ccccc3)ccc2N1c1ccccc1 [Example 1, 1-Phenyl-2-oxo-3.4-dihydro-6-phenylaminoquinazoline]
- IC50: < 50 µM
